Where no end group is shown, it is not given here. [ ]: non-standard residue; d: D form. Cit = NC(=O)NCCC[C@H](N)C(=O)O
Key:
[1] = system: anti-citrullinated protein autoantibodies (ACPAs); assay: ELISA of reactive citrullinated fibrin peptides with the 20 individual sera of mixtures A and B; format: binding, human; conditions: for Number of positive sera: sera with delta OD not <0.25 out of sera tested (20, or 10 of mixture A only); for delta OD: best coating buffer per peptide
Procedure: The 14 peptides carrying the most reactive epitopes (delta OD≧0.5 for one or other of the mixtures of serum (A and B) with at least one of the three coating buffers) were tested independently with the 20 sera constituting the mixtures A and B, in order to evaluate the reactivity profile of each of these peptides. The tests were carried out by ELISA under the same conditions as in Example 2 above, with the exception that, for each pair of peptides, the coating buffer selected was that that had made it possible to obtain the strongest reactivity with respect to this peptide during the screening (the buffer for which the sum of the delta ODs obtained respectively for the serum mixtures A and B was at a maximum). […] Thus, for each serum, the dilution that made it possible to obtain an OD of 1 by ELISA on deiminated fibrinogen was selected (Nogueira L, 2002, mentioned above). The dilutions ranged from 1/20 to 1/2700.

[2] = system: anti-citrullinated protein autoantibodies (ACPAs); assay: ELISA of citrullinated/native fibrin peptide pairs with serum mixtures A and B and control mixture (delta OD); format: binding, human; conditions: mean of two determinations
Procedure: Each pair of peptides (citrullinated and noncitrullinated) was assayed by ELISA with a mixture, in equal parts, of 10 sera having no ACPAs (control mixture) and with the 2 mixtures A and B described in Example 1.
Each pair of peptides (native and citrullinated form) was tested on the same plate and a pair of control peptides—citrullinated “filaggrin” peptide cfc6 and its corresponding native peptide cf0 (Schellekens G A, 1998, mentioned above)—was included in each experiment, which made it possible to calculate an inter-assay coefficient of variation and to perform corrections.
All the incubations were carried out for 1 h at 4° C. and were followed by washing in PBS-0.1% Tween. The peroxidase activity was visualized with a solution of ortho-phenylenediamine (2 mg/ml—Sigma) in hydrogen peroxide (0.03%—Sigma). The reaction was stopped after 5 minutes by adding 4M sulfuric acid, and the optical density (OD) at 492 nm was measured by virtue of an automatic spectrophotometer (Multiskan, Thermo Labsystems).
The specific reactivity of the mixtures of sera with regard to the citrullinated peptides corresponded to the difference between the OD obtained with the citrullinated peptide and that obtained with the corresponding native peptide (delta OD). The results correspond to the mean of two determinations. Any citrullinated peptide making it possible to obtain a delta OD of greater than 0.250 for at least one of the two mixtures A and B after coating in at least one of the three buffers, was considered to be reactive.

[3] = Mixture A of sera 1/50, coating buffer PBS pH 7.4
[4] = Mixture A of sera 1/50, coating buffer acetate pH 5.0
[5] = Mixture A of sera 1/50, coating buffer carbonate pH 9.0
[6] = Mixture B of sera 1/50, coating buffer PBS pH 7.4
[7] = Mixture B of sera 1/50, coating buffer acetate pH 5.0
[8] = Mixture B of sera 1/50, coating buffer carbonate pH 9.0

| Substance | Number of positive sera [1] | delta OD (citrullinated minus native peptide, 492 nm) [2, 3] | delta OD (citrullinated minus native peptide, 492 nm) [2, 4] | delta OD (citrullinated minus native peptide, 492 nm) [2, 5] | delta OD (citrullinated minus native peptide, 492 nm) [2, 6] | delta OD (citrullinated minus native peptide, 492 nm) [2, 7] | delta OD (citrullinated minus native peptide, 492 nm) [2, 8] | delta OD ([1]; serum 97.0311, dilution 1/200) | delta OD ([1]; serum 97.0459, dilution 1/60) | delta OD ([1]; serum 97.0794, dilution 1/50) | delta OD ([1]; serum 97.1474, dilution 1/20) | also measured |
| --- | --- | --- | --- | --- | --- | --- | --- | --- | --- | --- | --- | --- |
| β433-447Cit436,445: citrullinated synthetic peptide, fibrin β-chain residues 433-447 (second series) (WYN[Cit]CHAANPNG[Cit]YY) | 2/10 | 0.58 | 0.41 | 0.67 | 0.00 | 0.00 | 0.03 |  |  |  |  | delta OD ([1]; serum 97.0388, dilution 1/50): 1.14; delta OD ([1]; serum 97.0796, dilution 1/500): 0.71 |
| α171-185Cit178,181: citrullinated synthetic peptide, fibrin α-chain residues 171-185; fits SEQ ID NO: 4 VDIDIKIX1SCX2GSCS (VDIDIKI[Cit]SC[Cit]GSCS; cysteine pairing not given here) | 9/20 | 0.29 | 0.15 | 0.75 | 0.21 | 0.08 | 0.47 | 1.95 | 0.29 | 2.09 | 1.08 | delta OD ([1]; serum 97.0468, dilution 1/700): 0.42; delta OD ([1]; serum 97.0524, dilution 1/200): 0.59; delta OD ([1]; serum 97.0907, dilution 1/300): 0.44; delta OD ([1]; serum 97.1548, dilution 1/60): 0.71; delta OD ([1]; serum 97.1795, dilution 1/50): 0.57 |
| α36-50Cit38,42: citrullinated synthetic peptide, fibrin α-chain residues 36-50; fits SEQ ID NO: 2 GPX1VVEX2HQSACKDS (GP[Cit]VVE[Cit]HQSACKDS) | 12/20 | 2.69 | 4.00 | 3.43 | 2.65 | 4.27 | 2.64 | 0.71 | 3.55 | 3.43 | 1.93 | delta OD ([1]; serum 95.0256, dilution 1/35): 2.35; delta OD ([1]; serum 97.0323, dilution 1/120): 1.87; delta OD ([1]; serum 97.0388, dilution 1/50): 3.32; delta OD ([1]; serum 97.0524, dilution 1/200): 3.39; delta OD ([1]; serum 97.0530, dilution 1/50): 2.97; delta OD ([1]; serum 97.1436, dilution 1/150): 3.30; delta OD ([1]; serum 97.1715, dilution 1/300): 3.50; delta OD ([1]; serum 97.1795, dilution 1/50): 2.29 |
| β420-434Cit421: citrullinated synthetic peptide, fibrin β-chain residues 420-434 (P[Cit]KQCSKEDGGGWWY) |  | 0.48 | 0.36 | 0.44 | 0.00 | 0.00 | 0.00 |  |  |  |  |  |
| α396-410Cit404: citrullinated synthetic peptide, fibrin α-chain residues 396-410 (DSPGSGNA[Cit]PNNPDW) |  | 0.02 | 0.04 | 0.43 | 0.17 | 0.15 | 0.20 |  |  |  |  |  |
| α561-575Cit573: citrullinated synthetic peptide, fibrin α-chain residues 561-575 (SSHHPGIAEFPS[Cit]GK) | 5/20 | 0.30 | 0.05 | 0.01 | 0.52 | 0.14 | 0.17 | 0.30 | 0.38 | 1.95 | 0.71 | delta OD ([1]; serum 97.1548, dilution 1/60): 0.53 |
| α183-197Cit186,190: citrullinated synthetic peptide, fibrin α-chain residues 183-197 (second series) (SCS[Cit]ALA[Cit]EVDLKDY) | 3/10 | 1.68 | 0.41 | 1.36 | 0.15 | 0.01 | 0.07 | 0.87 | 3.21 |  |  | delta OD ([1]; serum 97.0506, dilution 1/75): 0.85 |
| α546-560Cit547: citrullinated synthetic peptide, fibrin α-chain residues 546-560 (S[Cit]GSESGIFTNTKES) | 2/10 | 0.74 | 0.38 | 0.33 | 0.15 | 0.05 | 0.16 |  |  |  |  | delta OD ([1]; serum 97.0530, dilution 1/50): 0.44; delta OD ([1]; serum 97.0796, dilution 1/500): 1.18 |
| α246-260Cit258: citrullinated synthetic peptide, fibrin α-chain residues 246-260 (PEWKALTDMPQM[Cit]ME) |  | 0.00 | 0.04 | 0.00 | 0.25 | 0.27 | 0.33 |  |  |  |  |  |
| α366-380Cit367: citrullinated synthetic peptide, fibrin α-chain residues 366-380 (E[Cit]GSAGHWTSESSVS) |  | 0.37 | 0.28 | 0.26 | 0.04 | 0.00 | 0.08 |  |  |  |  |  |

From patent US9249208B2, “Citrulline peptides derived from fibrin and recognized by rheumatoid arthritis specific autoantibodies, and the use thereof” (Biomerieux, priority 2004, dated 2016)
